Data: ChEMBL document CHEMBL1133694, “Hydroxamic acid derivatives as potent peptide deformylase inhibitors and antibacterial agents” (J Med Chem, 2000)
In brackets after ≈: the same amount, converted by molar mass. Each block holds one compound with its values, some of them ahead of it.

Key:
Bacillus subtilis = test: In vitro antibacterial activity against Bacillus subtilis ATCC 585969.; type: functional
Chlamydia pneumoniae = test: In vitro antibacterial activity against Chlamydia pneumoniae AR-39.; type: functional
Escherichia coli [1] = test: In vitro antibacterial activity against Escherichia coli ATCC 25922.; type: functional
Escherichia coli [2] = test: In vitro antibacterial activity against isolated Escherichia coli DC2; type: functional
[3] = molecular target: T1, Endothelin-converting enzyme 1 (Homo sapiens, UniProt P42892); test: Inhibitory activity against Endothelin-converting enzyme 1
T1 sequence (P42892 whole entry): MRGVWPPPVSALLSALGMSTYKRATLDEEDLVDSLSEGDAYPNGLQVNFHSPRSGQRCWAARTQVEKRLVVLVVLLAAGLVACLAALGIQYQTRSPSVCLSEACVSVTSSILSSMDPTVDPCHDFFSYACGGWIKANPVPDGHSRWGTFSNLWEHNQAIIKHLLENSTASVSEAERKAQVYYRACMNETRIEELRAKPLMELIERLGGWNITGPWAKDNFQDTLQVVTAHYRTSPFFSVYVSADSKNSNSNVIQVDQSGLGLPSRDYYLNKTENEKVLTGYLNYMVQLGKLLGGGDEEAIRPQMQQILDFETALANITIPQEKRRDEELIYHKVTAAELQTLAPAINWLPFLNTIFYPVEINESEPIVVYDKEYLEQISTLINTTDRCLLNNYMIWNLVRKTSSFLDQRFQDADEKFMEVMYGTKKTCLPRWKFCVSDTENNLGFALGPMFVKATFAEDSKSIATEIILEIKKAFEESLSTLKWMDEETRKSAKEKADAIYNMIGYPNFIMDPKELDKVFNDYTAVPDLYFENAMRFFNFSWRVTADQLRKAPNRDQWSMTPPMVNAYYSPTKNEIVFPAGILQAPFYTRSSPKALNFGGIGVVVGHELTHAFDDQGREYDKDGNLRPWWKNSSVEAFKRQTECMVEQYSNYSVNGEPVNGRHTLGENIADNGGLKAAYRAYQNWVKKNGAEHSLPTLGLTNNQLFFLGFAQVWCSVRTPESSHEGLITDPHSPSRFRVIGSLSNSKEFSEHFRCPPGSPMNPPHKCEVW

Haemophilus influenzae = test: In vitro antibacterial activity against Haemophilus influenzae 11.; type: functional
Collagenase 3 = Collagenase 3 (Homo sapiens, UniProt P45452); test: Inhibition of Matrix metalloprotease-13
Interstitial collagenase = molecular target: T2, Interstitial collagenase (Homo sapiens, UniProt P03956); test: Inhibition of Matrix metalloprotease-1
T2 sequence (P03956 whole entry): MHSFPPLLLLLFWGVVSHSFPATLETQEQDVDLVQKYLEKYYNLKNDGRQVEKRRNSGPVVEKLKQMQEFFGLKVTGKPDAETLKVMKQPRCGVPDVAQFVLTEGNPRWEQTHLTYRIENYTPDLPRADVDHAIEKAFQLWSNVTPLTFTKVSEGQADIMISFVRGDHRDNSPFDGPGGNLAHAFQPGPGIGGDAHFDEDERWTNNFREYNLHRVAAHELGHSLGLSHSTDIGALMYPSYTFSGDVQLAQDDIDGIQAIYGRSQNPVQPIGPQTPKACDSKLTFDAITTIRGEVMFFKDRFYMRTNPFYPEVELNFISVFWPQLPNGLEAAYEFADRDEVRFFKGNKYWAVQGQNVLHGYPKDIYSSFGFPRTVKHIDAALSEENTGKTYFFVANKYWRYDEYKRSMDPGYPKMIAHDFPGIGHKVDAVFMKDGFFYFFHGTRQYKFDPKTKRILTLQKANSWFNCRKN

[4] = molecular target: Macrophage metalloelastase (Homo sapiens, UniProt P39900); test: Inhibition of human Matrix metalloprotease-12
Moraxella catarrhalis = test: In vitro antibacterial activity against isolated Moraxella catarrhalis RA21; type: functional
[5] = test system: Mycoplasmoides pneumoniae; test: In vitro antibacterial activity against Mycoplasma pneumoniae ATCC 29342.; type: functional
Neprilysin [6] = molecular target: T3, Neprilysin (Rattus norvegicus, UniProt P07861); test: Inhibitory activity against endopeptidase enzyme (NEP).
T3 sequence (P07861 whole entry): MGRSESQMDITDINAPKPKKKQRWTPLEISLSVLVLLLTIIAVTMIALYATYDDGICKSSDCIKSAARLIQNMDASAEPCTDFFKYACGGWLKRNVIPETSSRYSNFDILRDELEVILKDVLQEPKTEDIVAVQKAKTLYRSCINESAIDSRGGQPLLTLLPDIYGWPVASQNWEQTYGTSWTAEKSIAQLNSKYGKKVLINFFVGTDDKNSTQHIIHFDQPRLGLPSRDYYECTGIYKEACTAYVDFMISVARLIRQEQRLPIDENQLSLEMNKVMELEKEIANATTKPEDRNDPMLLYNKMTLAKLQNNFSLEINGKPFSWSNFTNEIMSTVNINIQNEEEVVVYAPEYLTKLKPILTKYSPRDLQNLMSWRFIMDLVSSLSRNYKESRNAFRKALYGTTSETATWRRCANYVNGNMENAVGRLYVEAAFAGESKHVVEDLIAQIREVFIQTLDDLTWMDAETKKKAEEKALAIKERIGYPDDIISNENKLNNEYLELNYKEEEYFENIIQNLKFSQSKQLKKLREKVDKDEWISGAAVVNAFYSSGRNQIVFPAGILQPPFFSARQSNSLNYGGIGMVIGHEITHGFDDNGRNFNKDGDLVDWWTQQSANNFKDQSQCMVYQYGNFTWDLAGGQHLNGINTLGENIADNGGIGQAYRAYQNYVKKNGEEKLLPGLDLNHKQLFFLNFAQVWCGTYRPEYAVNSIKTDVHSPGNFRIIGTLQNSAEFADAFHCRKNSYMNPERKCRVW

Pseudomonas aeruginosa = test: In vitro antibacterial activity against Pseudomonas aeruginosa ATCC 27853.; type: functional
Staphylococcus aureus = test: In vitro antibacterial activity against Staphylococcus aureus ATCC 25923.; type: functional
Streptococcus pneumoniae [7] = test: In vitro antibacterial activity against Streptococcus pneumoniae ATCC 49619.; type: functional
[8] = molecular target: Angiotensin-converting enzyme (Homo sapiens, UniProt P12821)
Enterococcus faecalis = test: In vitro antibacterial activity against Enterococcus faecalis ATCC 29212.; type: functional
Enterococcus faecium = test: In vitro antibacterial activity against Enterococcus faecium vanA E25_1.; type: functional
Neprilysin [9] = molecular target: T3, Neprilysin; test: Inhibitory activity against neutral endopeptidase enzyme (NEP).
[10] = Inhibitory activity against PDF isolated from Bacillus subtilis
[11] = test system: Stenotrophomonas maltophilia; test: In vitro antibacterial activity against Stenotrophomonas maltophilia 1AC739.; type: functional
Streptococcus pneumoniae [12] = test: In vitro antibacterial activity against Streptococcus pneumoniae 1/1 (penicillin resistant).; type: functional
[13] = test system: peptide deformylase (Streptococcus pneumoniae); test: Inhibitory activity against PDF isolated from Streptococcus pneumoniae
Peptide deformylase = molecular target: T4, Peptide deformylase (Escherichia coli, UniProt Q9JN24); test: Inhibitory activity against isolated Escherichia coli peptidyl deformylase (PDF) enzyme containing iron.
T4 sequence (Q9JN24 whole entry): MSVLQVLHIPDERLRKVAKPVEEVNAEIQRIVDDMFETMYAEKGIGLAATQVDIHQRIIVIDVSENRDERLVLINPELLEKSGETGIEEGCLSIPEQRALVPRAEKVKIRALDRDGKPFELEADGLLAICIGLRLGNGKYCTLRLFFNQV

Angiotensin-converting enzyme, sequence (P12821 whole entry): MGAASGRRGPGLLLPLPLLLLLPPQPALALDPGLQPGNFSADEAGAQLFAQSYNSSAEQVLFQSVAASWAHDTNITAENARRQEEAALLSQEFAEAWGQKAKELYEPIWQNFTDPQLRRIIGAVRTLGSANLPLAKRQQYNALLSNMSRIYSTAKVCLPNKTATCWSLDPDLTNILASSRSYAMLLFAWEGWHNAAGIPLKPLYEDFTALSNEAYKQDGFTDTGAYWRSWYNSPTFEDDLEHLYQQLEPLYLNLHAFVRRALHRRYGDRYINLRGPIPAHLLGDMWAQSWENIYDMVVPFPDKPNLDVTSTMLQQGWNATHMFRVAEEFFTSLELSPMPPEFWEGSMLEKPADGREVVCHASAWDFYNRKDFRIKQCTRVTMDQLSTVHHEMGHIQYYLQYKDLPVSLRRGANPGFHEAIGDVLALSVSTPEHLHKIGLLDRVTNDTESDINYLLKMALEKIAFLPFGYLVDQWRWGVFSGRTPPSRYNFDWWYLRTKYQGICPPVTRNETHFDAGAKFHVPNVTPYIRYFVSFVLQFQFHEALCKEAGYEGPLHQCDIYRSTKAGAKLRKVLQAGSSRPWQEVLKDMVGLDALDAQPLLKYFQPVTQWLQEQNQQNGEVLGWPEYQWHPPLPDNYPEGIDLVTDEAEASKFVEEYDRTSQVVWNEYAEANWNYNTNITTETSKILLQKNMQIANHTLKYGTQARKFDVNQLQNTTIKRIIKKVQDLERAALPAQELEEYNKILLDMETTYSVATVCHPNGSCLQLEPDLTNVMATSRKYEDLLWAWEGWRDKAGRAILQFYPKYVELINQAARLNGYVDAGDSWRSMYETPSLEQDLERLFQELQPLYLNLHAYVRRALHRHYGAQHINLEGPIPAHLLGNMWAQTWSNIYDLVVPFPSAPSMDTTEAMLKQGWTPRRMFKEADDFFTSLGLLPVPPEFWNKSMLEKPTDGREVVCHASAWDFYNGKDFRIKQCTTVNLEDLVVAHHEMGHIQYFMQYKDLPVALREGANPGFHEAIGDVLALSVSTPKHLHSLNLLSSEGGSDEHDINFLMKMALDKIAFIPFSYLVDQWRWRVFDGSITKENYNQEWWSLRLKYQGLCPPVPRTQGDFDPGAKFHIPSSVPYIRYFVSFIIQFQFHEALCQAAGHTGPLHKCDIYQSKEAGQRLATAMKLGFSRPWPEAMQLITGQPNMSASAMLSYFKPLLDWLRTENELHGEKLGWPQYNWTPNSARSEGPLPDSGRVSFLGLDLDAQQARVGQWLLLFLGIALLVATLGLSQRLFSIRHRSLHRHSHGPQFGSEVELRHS
Macrophage metalloelastase, sequence (P39900 whole entry): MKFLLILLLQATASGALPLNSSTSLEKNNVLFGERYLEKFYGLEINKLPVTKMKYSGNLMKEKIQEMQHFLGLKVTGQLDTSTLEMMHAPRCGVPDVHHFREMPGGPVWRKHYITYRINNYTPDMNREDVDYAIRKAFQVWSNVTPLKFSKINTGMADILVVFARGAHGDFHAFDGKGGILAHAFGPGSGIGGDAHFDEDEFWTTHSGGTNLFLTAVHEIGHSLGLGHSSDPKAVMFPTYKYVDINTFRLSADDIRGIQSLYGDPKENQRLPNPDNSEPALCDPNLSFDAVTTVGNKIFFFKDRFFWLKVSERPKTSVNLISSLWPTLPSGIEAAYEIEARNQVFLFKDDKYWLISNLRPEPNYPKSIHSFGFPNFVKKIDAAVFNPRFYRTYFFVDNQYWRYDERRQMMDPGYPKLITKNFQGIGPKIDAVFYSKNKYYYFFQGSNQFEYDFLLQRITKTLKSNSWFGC

SMILES: CCCC[C@H](CC(=O)NO)S(=O)(=O)c1ccccc1
- MIC (Bacillus subtilis): 1 µg/mL (≈ 3.5 µM)
- MIC (Chlamydia pneumoniae): 0.5 µg/mL (≈ 1.75 µM)
- MIC (Escherichia coli [1]): 128 µg/mL (≈ 449 µM)
- MIC (Escherichia coli [2]): 2 µg/mL (≈ 7.01 µM)
- IC50 [3]: > 100000 nM
- MIC (Haemophilus influenzae): 2 µg/mL (≈ 7.01 µM)
- IC50 (Collagenase 3): 79 nM
- IC50 (Interstitial collagenase): 150 nM
- IC50 [4]: 42 nM
- MIC (Moraxella catarrhalis): < 0.25 µg/mL
- MIC [5]: 0.5 µg/mL (≈ 1.75 µM)
- IC50 (Neprilysin [6]): 2500 nM
- MIC (Pseudomonas aeruginosa): > 128 µg/mL
- MIC (Staphylococcus aureus): 128 µg/mL (≈ 449 µM)
- MIC (Streptococcus pneumoniae [7]): 128 µg/mL (≈ 449 µM)
- IC50 [8]: 34000 nM

- MIC (Escherichia coli [2]): > 128 µg/mL
- IC50 [3]: > 100000 nM
- IC50 (Collagenase 3): 18 nM
- IC50 (Interstitial collagenase): 300 nM
- IC50 [4]: 9 nM
- MIC (Moraxella catarrhalis): 16 µg/mL (≈ 56.1 µM)
- IC50 (Neprilysin [6]): 15000 nM
- IC50 [8]: > 100000 nM
SMILES: CCCC[C@@H](CC(=O)NO)S(=O)(=O)c1ccccc1

SMILES: CCCCC(CC(=O)NO)S(=O)(=O)c1ccccc1 (stereo not drawn)
- MIC (Bacillus subtilis): 1 µg/mL (≈ 3.5 µM)
- MIC (Chlamydia pneumoniae): 0.5 µg/mL (≈ 1.75 µM)
- MIC (Escherichia coli [1]): 128 µg/mL (≈ 449 µM)
- MIC (Enterococcus faecalis): > 128 µg/mL
- MIC (Escherichia coli [2]): 8 µg/mL (≈ 28 µM)
- MIC (Enterococcus faecium): > 128 µg/mL
- IC50 [3]: > 50000 nM
- MIC (Haemophilus influenzae): 4 µg/mL (≈ 14 µM)
- IC50 (Collagenase 3): 22 nM
- IC50 (Interstitial collagenase): 110 nM
- IC50 [4]: 12 nM
- MIC (Moraxella catarrhalis): < 0.25 µg/mL
- MIC [5]: 1 µg/mL (≈ 3.5 µM)
- IC50 (Neprilysin [9]): 18000 nM
- IC50 [10]: 96 nM
- MIC (Pseudomonas aeruginosa): > 128 µg/mL
- MIC (Staphylococcus aureus): 256 µg/mL (≈ 897 µM)
- MIC (Streptococcus pneumoniae [7]): 128 µg/mL (≈ 449 µM)
- MIC [11]: 4 µg/mL (≈ 14 µM)
- MIC (Streptococcus pneumoniae [12]): 128 µg/mL (≈ 449 µM)
- IC50 [8]: 81000 nM
- IC50 [13]: 340 nM

- MIC (Escherichia coli [2]): > 32 µg/mL
- MIC (Moraxella catarrhalis): > 32 µg/mL
SMILES: CC(CC(=O)NO)S(=O)(=O)c1ccccc1 (stereo not drawn)

SMILES: CCCCC(CC(=O)NO)[S+]([O-])c1ccc(Br)cc1 (stereo not drawn)
- MIC (Escherichia coli [2]): 1 µg/mL (≈ 2.87 µM)
- MIC (Moraxella catarrhalis): < 0.125 µg/mL
- IC50 (Peptide deformylase): 210 nM

SMILES: CCCCC(CC(=O)NO)S(=O)(=O)c1cccc(OC)c1 (stereo not drawn)
- MIC (Escherichia coli [2]): 16 µg/mL (≈ 50.7 µM)
- MIC (Moraxella catarrhalis): 2 µg/mL (≈ 6.34 µM)
- IC50 (Peptide deformylase): 86 nM

SMILES: CCCCC(CC(=O)NO)S(=O)(=O)c1ccc(OC)cc1 (stereo not drawn)
- MIC (Escherichia coli [2]): 16 µg/mL (≈ 50.7 µM)
- MIC (Moraxella catarrhalis): 0.5 µg/mL (≈ 1.59 µM)
- IC50 (Peptide deformylase): 31 nM

- MIC (Escherichia coli [2]): 1 µg/mL (≈ 3.5 µM)
- MIC (Moraxella catarrhalis): < 0.06 µg/mL
SMILES: CCCC[C@H](C(O)C(=O)NO)[S+]([O-])c1ccccc1 (stereo partly drawn)

- MIC (Escherichia coli [2]): 32 µg/mL (≈ 112 µM)
- MIC (Moraxella catarrhalis): 4 µg/mL (≈ 14 µM)
SMILES: CCCC[C@@H](C(O)C(=O)NO)[S+]([O-])c1ccccc1 (stereo partly drawn)

SMILES: CCCCCC(CC(=O)NO)S(=O)(=O)c1ccccc1 (stereo not drawn)
- MIC (Escherichia coli [2]): 2 µg/mL (≈ 6.68 µM)
- MIC (Moraxella catarrhalis): < 0.06 µg/mL
- IC50 (Peptide deformylase): 140 nM

SMILES: CCCCC(CC(=O)NO)[S+]([O-])c1ccccc1 (stereo not drawn)
- MIC (Bacillus subtilis): 0.25 µg/mL (≈ 0.928 µM)
- MIC (Chlamydia pneumoniae): 0.25 µg/mL (≈ 0.928 µM)
- MIC (Escherichia coli [1]): 32 µg/mL (≈ 119 µM)
- MIC (Enterococcus faecalis): > 128 µg/mL
- MIC (Escherichia coli [2]): 1 µg/mL (≈ 3.71 µM)
- MIC (Enterococcus faecium): > 128 µg/mL
- IC50 [3]: > 100000 nM
- MIC (Haemophilus influenzae): 1 µg/mL (≈ 3.71 µM)
- IC50 (Interstitial collagenase): 93 nM
- MIC (Moraxella catarrhalis): < 0.25 µg/mL
- MIC [5]: 0.25 µg/mL (≈ 0.928 µM)
- IC50 (Neprilysin [9]): 2600 nM
- IC50 [10]: 46 nM
- MIC (Pseudomonas aeruginosa): > 128 µg/mL
- MIC (Staphylococcus aureus): 16 µg/mL (≈ 59.4 µM)
- MIC (Streptococcus pneumoniae [7]): 32 µg/mL (≈ 119 µM)
- MIC [11]: < 0.25 µg/mL
- MIC (Streptococcus pneumoniae [12]): 64 µg/mL (≈ 238 µM)
- IC50 [8]: > 100000 nM
- IC50 [13]: 240 nM

- MIC (Escherichia coli [2]): 64 µg/mL (≈ 218 µM)
- MIC (Moraxella catarrhalis): 4 µg/mL (≈ 13.6 µM)
SMILES: CCCCCCS(=O)(=O)C(CCCC)CC(=O)NO (stereo not drawn)

- MIC (Escherichia coli [2]): 16 µg/mL (≈ 43.9 µM)
- MIC (Moraxella catarrhalis): 2 µg/mL (≈ 5.49 µM)
SMILES: CCCCC(CC(=O)NO)S(=O)(=O)c1ccc(Br)cc1 (stereo not drawn)
